Experimental data taken from publication PMC3637938 (Chemical research in toxicology, 2013).

Key:
[1] = target: T1, FLAG-Trx2 (Saccharomyces cerevisiae, UniProt P22803); test: cross-linking in yeast cells, anti-FLAG immunoblot; type: cell-based; conditions: covalent; 1 h
T1 sequence (P22803 2-104): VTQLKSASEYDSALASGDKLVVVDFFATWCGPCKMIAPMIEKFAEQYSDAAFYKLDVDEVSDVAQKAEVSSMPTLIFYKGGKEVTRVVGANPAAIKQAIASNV

[2] = target: T2, FLAG-Tsa1 (Saccharomyces cerevisiae, UniProt P34760); test: cross-linking in yeast cells, anti-FLAG immunoblot; type: cell-based; conditions: covalent; 1 h
T2 sequence (P34760 2-196): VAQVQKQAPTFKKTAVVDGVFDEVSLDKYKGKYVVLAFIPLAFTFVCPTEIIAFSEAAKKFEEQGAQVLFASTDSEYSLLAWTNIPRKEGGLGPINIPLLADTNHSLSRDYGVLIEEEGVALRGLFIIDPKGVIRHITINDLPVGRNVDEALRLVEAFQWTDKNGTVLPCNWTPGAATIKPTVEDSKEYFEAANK

| SMILES | cross-linking in yeast cells, anti-FLAG immunoblot [1] | cross-linking in yeast cells, anti-FLAG immunoblot [2] |
| --- | --- | --- |
| C1OC1C1CO1 (stereo not shown) [1,2,3,4-diepoxybutane] | each of these bifunctional electrophiles promotes cross-linking of Trx2 and Tsa1 in yeast | each of these bifunctional electrophiles promotes cross-linking of Trx2 and Tsa1 in yeast |
| CCOC(=O)C#CC(=O)OCC [diethyl acetylenedicarboxylate] | each of these bifunctional electrophiles promotes cross-linking of Trx2 and Tsa1 in yeast | each of these bifunctional electrophiles promotes cross-linking of Trx2 and Tsa1 in yeast |
